According to patent publication US12576099B2, “Ribose-modified cap analog and use thereof” (Beijing Youcare Kechuang Pharmaceutical Technology Co., Ltd., priority 2024, dated 2026):

How the values were obtained:
T7 RNA polymerase = T7 RNA polymerase (Escherichia phage T7, UniProt P00573); assay: In vitro transcription yield of mRNA using cap analogs; type: biochemical; conditions: for Yield per unit template: in vitro transcription, 1 μg DNA template, 37° C., 2 hours
Method: • (1) Capping synthesis using cap analogs
The plasmid was first linearized with plasmid linearizing enzyme, and then the linearized plasmid was purified. • (2) In vitro transcription and synthesis of mRNA
During the experiment, the volume of materials required for the system was first calculated, and then sample addition was conducted. The system was first added with sterile enzyme-free water, followed by the sequential addition of 10× buffer, NTPs, and cap analogs, mixed well, and gently centrifuged. Nuclease inhibitors, inorganic pyrophosphatase, T7RNA polymerase, and linearized DNA templates were then added thereto. The system was mixed well, gently centrifuged, and incubated at 37° C. After 2 hours of incubation, the system was added with 1 U of DNase I and incubated at 37° C. for another 30 minutes. The mRNA precipitate was then washed with 75% ethanol, and after the ethanol was briefly evaporated to dryness, the mRNA was redissolved in sterile enzyme-free water. • (3) The transcription product was purified, and the in vitro transcription yield of mRNA was recorded. • (4) The obtained mRNA was subjected to an annealing reaction with a probe.

HEK293T cells = assay: Translation efficiency of different capped luciferase mRNAs; type: cell-based; conditions: for Relative fluorescence intensity: HEK293T, 0.5 μg mRNA per well, 24 hours, proportional to translation efficiency; for Multiple of m6A (relative fluorescence intensity): relative to m6A
Method in brief: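 HEK293T cells were transfected with 0.5 μg capped luciferase mRNA per well (Lipofectamine MessengerMAX) and cultured 24 h at 37 °C. Lysates were mixed with Dual-Lumi II reagent for 5 min at about 25 °C; luminescence served as the measure of translation efficiency.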

BALB/C mice = assay: In vivo imaging of Fluc-mRNA LNP expression in mice
Method: The LNP preparation containing 5 μg of cap analog-transcribed Fluc-mRNA was intramuscularly injected into female BALB/C mice aged 4 to 6 weeks and weighing 17 to 19 g. At specific time points after administration (6 hours, 12 hours, 24 hours, 48 hours, 96 hours, and 168 hours), the mice were intraperitoneally injected with fluorescence imaging substrate. The mice were then allowed to move freely for 5 minutes, followed by detection of the total radiation intensity of the protein expressed by LNP-carrying mRNA in the mice using an IVIS Spectrum small-animal in vivo imaging system (corresponding to the amount of protein expression).
In the in vivo imaging experiments in mice, the multiple of the total radiation intensity for each group of mice relative to the m6A group is shown in Table 8 (where the total radiation intensity is represented as the given value×10^8 p/s).

[1] = 6 h, 5 μg Fluc-mRNA LNP intramuscular, mice
[2] = 12 h, 5 μg Fluc-mRNA LNP intramuscular, mice
[3] = 24 h, 5 μg Fluc-mRNA LNP intramuscular, mice
[4] = 48 h, 5 μg Fluc-mRNA LNP intramuscular, mice
[5] = 96 h, 5 μg Fluc-mRNA LNP intramuscular, mice
[6] = 168 h, 5 μg Fluc-mRNA LNP intramuscular, mice

T7 RNA polymerase, sequence (P00573 whole entry): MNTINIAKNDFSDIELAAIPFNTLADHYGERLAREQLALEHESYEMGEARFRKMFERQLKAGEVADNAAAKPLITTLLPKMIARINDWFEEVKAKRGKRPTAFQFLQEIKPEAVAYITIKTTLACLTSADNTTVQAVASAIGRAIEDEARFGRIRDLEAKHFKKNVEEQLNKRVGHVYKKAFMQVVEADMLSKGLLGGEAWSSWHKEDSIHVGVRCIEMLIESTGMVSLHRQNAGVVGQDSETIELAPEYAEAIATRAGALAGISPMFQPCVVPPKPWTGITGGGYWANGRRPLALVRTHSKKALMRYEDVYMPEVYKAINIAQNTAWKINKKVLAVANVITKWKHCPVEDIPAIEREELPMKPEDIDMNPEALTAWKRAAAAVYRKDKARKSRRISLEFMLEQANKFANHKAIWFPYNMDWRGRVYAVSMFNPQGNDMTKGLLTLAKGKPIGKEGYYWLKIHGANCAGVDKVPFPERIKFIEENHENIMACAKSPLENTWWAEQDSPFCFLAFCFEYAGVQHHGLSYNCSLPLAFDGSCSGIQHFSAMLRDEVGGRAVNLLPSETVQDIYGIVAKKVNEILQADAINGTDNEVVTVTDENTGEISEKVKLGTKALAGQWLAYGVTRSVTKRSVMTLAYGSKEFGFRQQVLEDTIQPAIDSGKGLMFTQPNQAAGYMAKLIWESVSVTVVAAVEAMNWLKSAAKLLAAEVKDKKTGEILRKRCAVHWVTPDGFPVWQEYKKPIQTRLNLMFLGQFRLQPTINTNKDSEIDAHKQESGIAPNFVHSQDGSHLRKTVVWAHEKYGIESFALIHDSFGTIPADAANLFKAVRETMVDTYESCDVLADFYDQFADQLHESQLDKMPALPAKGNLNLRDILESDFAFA

Row | SMILES | Yield per unit template (T7 RNA polymerase) | Increase relative to 5227 (in vitro transcription yield) (T7 RNA polymerase) | Relative fluorescence intensity (HEK293T cells) | Multiple of m6A (relative fluorescence intensity) (HEK293T cells) | Multiple of total radiation intensity relative to m6A (BALB/C mice; 6 h) | Total radiation intensity (BALB/C mice; [1]) | Multiple of total radiation intensity relative to m6A (BALB/C mice; 12 h) | Total radiation intensity (BALB/C mice; [2]) | Multiple of total radiation intensity relative to m6A (BALB/C mice; 24 h) | Total radiation intensity (BALB/C mice; [3]) | Multiple of total radiation intensity relative to m6A (BALB/C mice; 48 h) | Total radiation intensity (BALB/C mice; [4]) | Multiple of total radiation intensity relative to m6A (BALB/C mice; 96 h) | Total radiation intensity (BALB/C mice; [5]) | Total radiation intensity (BALB/C mice; [6]) | other results
1 | CO[C@@H]1[C@H](OP(=O)(O)OC[C@H]2O[C@@H](n3cnc4c(=O)[nH]c(N)nc43)[C@H](O)[C@@H]2O)[C@@H](COP(=O)(O)OP(=O)(O)OP(=O)(O)OC[C@H]2O[C@@H]([n+]3cn(C)c4c(=O)[nH]c(N)nc43)[C@H](O)[C@]2(C)NC(C)=O)O[C@H]1n1cnc2c(N)ncnc21 [YK-CAP-106] | 155.5 µg | 15.9% | 1.53 | 4.0 | 2.5 | 5.88 ×108 p/s | 3.2 | 6.85 ×108 p/s | 2.7 | 1.76 ×108 p/s | 1.0 | 0.53 ×108 p/s | 2.6 | 0.11 ×108 p/s | 0.03 ×108 p/s | 
2 | CO[C@@H]1[C@H](OP(=O)(O)OC[C@H]2O[C@@H](n3cnc4c(=O)[nH]c(N)nc43)[C@H](O)[C@@H]2O)[C@@H](COP(=O)(O)OP(=O)(O)OP(=O)(O)OC[C@H]2O[C@@H]([n+]3cn(C)c4c(=O)[nH]c(N)nc43)[C@H](O)[C@@H]2C(F)F)O[C@H]1n1cnc2c(N)ncnc21 [YK-CAP-110] | 172.1 µg | 28.2% | 1.95 | 5.1 | 4.1 | 9.52 ×108 p/s | 5.0 | 10.55 ×108 p/s | 4.6 | 3.04 ×108 p/s | 4.4 | 2.30 ×108 p/s | 1.0 | 0.27 ×108 p/s | 0.04 ×108 p/s | Relative fluorescence intensity, times that of HN3002 (HEK293T cells; relative to HN3002): 1.7 times; Relative fluorescence intensity, times that of N-7113 (HEK293T cells; relative to N-7113): 1.9 times; Relative fluorescence intensity (translation efficiency), times that of YK-CAP-101 (HEK293T cells; relative to YK-CAP-101): 8.9 times; Relative fluorescence intensity, times that of YK-CAP-102 (HEK293T cells; relative to YK-CAP-102): 5.7 times; Relative fluorescence intensity, times that of YK-CAP-103 (HEK293T cells; relative to YK-CAP-103): 2.5 times; Relative fluorescence intensity, times that of YK-CAP-104 (HEK293T cells; relative to YK-CAP-104): 2.4 times; Relative fluorescence intensity, times that of YK-CAP-105 (HEK293T cells; relative to YK-CAP-105): 2.7 times; Relative fluorescence intensity, times that of compound 14 (HEK293T cells; relative to compound 14): 1.7 times; Total radiation intensity (BALB/C mice; at 12 hours): 10.55 ×10^8 p/s; Total radiation intensity, times that of N-7113 (BALB/C mice; at 12 hours): 2.4 times; Total radiation intensity, times that of YK-CAP-101 (BALB/C mice; at 12 hours): 11.0 times; Total radiation intensity (BALB/C mice; at 48 hours): 2.30 ×10^8 p/s; Total radiation intensity, times that of N-7113 (BALB/C mice; at 48 hours): 4.7 times; Total radiation intensity, times that of YK-CAP-101 (BALB/C mice; at 48 hours): 12.1 times
3 | COC[C@@H]1[C@H](OP(=O)(O)OC[C@H]2O[C@@H](n3cnc4c(=O)[nH]c(N)nc43)[C@H](O)[C@@H]2O)[C@@H](COP(=O)(O)OP(=O)(O)OP(=O)(O)OC[C@H]2O[C@@H]([n+]3cn(C)c4c(=O)[nH]c(N)nc43)[C@H](O)[C@@H]2O)O[C@H]1n1cnc2c(N)ncnc21 [YK-CAP-113] | 166.1 µg | 23.8% | 1.63 | 4.3 | 2.6 | 6.07 ×108 p/s | 3.6 | 7.63 ×108 p/s | 3.1 | 2.02 ×108 p/s | 2.5 | 1.29 ×108 p/s | 1.2 | 0.31 ×108 p/s | 0.04 ×108 p/s | 
4 | CO[C@@H]1[C@H](OP(=O)(O)OC[C@H]2O[C@@H](n3cnc4c(=O)[nH]c(N)nc43)[C@H](O)[C@@H]2O)[C@@H](COP(=O)(O)OP(=O)(O)OP(=O)(O)OC[C@@]2(C(F)F)O[C@@H]([n+]3cn(C)c4c(=O)[nH]c(N)nc43)[C@H](O)[C@@H]2O)O[C@H]1n1cnc2c(N)ncnc21 [YK-CAP-119] | 154.2 µg | 14.9% | 1.45 | 3.8 | 3.2 | 7.47 ×108 p/s | 3.1 | 6.65 ×108 p/s | 3.3 | 2.15 ×108 p/s | 2.4 | 1.26 ×108 p/s | 1.3 | 0.25 ×108 p/s | 0.02 ×108 p/s | 
5 | CO[C@@H]1[C@H](OP(=O)(O)OC[C@H]2O[C@@H](n3cnc4c(=O)[nH]c(N)nc43)[C@H](O)[C@@H]2O)[C@@H](COP(=O)(O)OP(=O)(O)OP(=O)(O)OC[C@@]2(CF)O[C@@H]([n+]3cn(C)c4c(=O)[nH]c(N)nc43)[C@H](O)[C@@H]2O)O[C@H]1n1cnc2c(N)ncnc21 [YK-CAP-118] | 172.2 µg | 28.3% | 1.65 | 4.3 | 3.0 | 7.06 ×108 p/s | 3.0 | 6.28 ×108 p/s | 3.1 | 2.03 ×108 p/s | 2.6 | 1.33 ×108 p/s | 1.2 | 0.35 ×108 p/s | 0.02 ×108 p/s | 
